Structures can show the parent of a compound that is named as a salt.
Target: recombinant human PARP1 (Homo sapiens, UniProt P09874)
Test: PARP1 fluorescence polarization binding assay
Conditions: binding IC50, GST-tagged PARP1 20 nM, PARPi-FL probe 3 nM, 4 h at RT
Description: In some embodiments, the biological assay is described in the Examples herein. In some embodiments, the biological assay measures PARP-1 binding by way of fluorescence polarization measurements. In some embodiments, binding of a test compound to recombinant human PARP-1 reduces the amount of binding of a fluorescent probe, and consequently reduces the detected level of fluorescence polarization. In some test compound stock solutions are prepared in a solvent, e.g., DMSO, and are serially diluted into a range of concentrations, e.g., 15 concentrations, 14 concentrations, 13 concentrations, 12 concentrations, 11 concentrations, 10 concentrations, 9 concentrations, 8 concentrations, 7 concentrations, 6 concentrations, or 5 concentrations, by a dilution factor, e.g., a 10-fold dilution factor, a 9-fold dilution factor, an 8-fold dilution factor, a 7-fold dilution factor, a 6-fold dilution factor, a 5-fold dilution factor, a 4-fold dilution factor, a 3-fold dilution factor, or a 2-fold dilution factor. In some embodiments, the serial dilutions, e.g., 100 nL of serial dilution, 90 nL of serial dilution, 80 nL of serial dilution, 70 nL of serial dilution, 60 nL of serial dilution, 50 nL of serial dilution, 30 nL of serial dilution, 20 nL of serial dilution, or 10 nL of serial dilution, are added to a multi-welled plate, e.g., a 1536-well plate, a 384-well plate, or a 96-well plate. In some embodiments, PARP-1, e.g., GST-tagged PARP-1, is diluted in assay buffer, e.g., 50 μL of assay buffer, 40 μL of assay buffer, e.g., 30 μL of assay buffer, 20 μL of assay buffer, 10 μL of assay buffer, or 5 μL of assay buffer, and is added to the plate. In some embodiments, the plate is centrifuged, e.g., at 1000 rpm for 1 min, and incubated, e.g., incubated for 30 minutes at room temperature (RT). In some embodiments, a fluorescent probe, e.g., 10 μL of 6 nM PARPi-FL (TOCRIS, Cat #6461), is diluted in an assay buffer and is added to the plate. In some embodiments, the final concentrations of PARP-1 and fluorescent probe are 20 nM and 3 nM, respectively, in a total volume of 20 μL. In some embodiments, the plate is centrifuged, e.g., at 1000 rpm for 1 minute, and the assay plate is incubated, e.g., for 4 h at RT. In some embodiments, the samples in each well are read using a plate reader, e.g., an Envision instrument using excitation=480 nm, and emission wavelength=FITC FP-P pol 535 nm & FITC FP-S pol 535 nm). In some embodiments, percent inhibition is calculated from mP values using Inhibition (%)=[1−(mPc−mPL)/(mPH−mPL)]×100%, where mPc, mPL, and mPH are the mP values of test compound, Low controls, and High controls, respectively. In some embodiments, binding IC50 values are calculated using XLFit (equation 201: y=A+((B−A)/(1+((x/C)^D))), where A=bottom, B=top, C=IC50, and D=slope) with a floating top and bottom for curves.
Compounds of the present disclosure were tested in a PARP1 fluorescence polarization binding assay at Pharmaron (Beijing, P.R. China). In this biochemical assay, binding of test compound to recombinant human PARP1 reduces the amount of binding of a fluorescent probe, and consequently reduces the detected level of fluorescence polarization. Test compound stock solutions were prepared in DMSO and then serially diluted into 10 concentrations by 3-fold dilution in a 384-well plate using a TECAN EVO200. 60 nL of each dilution was transferred to the plate using an Echo550 (Labcyte), and then 10 μL 40 nM GST-tagged PARP1 (BPS Bioscience, Cat #80501), diluted in assay buffer (50 mM Tris pH 8.0, 0.001% Triton X-100, 10 mM MgCl2, 150 mM NaCl), was added to the plate. After a centrifugation at 1000 rpm for 1 min, the assay plate was incubated for 30 min at RT. 10 μL 6 nM PARPi-FL (TOCRIS, Cat #6461), diluted using assay buffer, was then added to the plate. The final concentrations of PARP1 and PARPi-FL were 20 nM and 3 nM, respectively, in a total volume of 20 μL. […]

Sequence of recombinant human PARP1 (P09874 whole entry): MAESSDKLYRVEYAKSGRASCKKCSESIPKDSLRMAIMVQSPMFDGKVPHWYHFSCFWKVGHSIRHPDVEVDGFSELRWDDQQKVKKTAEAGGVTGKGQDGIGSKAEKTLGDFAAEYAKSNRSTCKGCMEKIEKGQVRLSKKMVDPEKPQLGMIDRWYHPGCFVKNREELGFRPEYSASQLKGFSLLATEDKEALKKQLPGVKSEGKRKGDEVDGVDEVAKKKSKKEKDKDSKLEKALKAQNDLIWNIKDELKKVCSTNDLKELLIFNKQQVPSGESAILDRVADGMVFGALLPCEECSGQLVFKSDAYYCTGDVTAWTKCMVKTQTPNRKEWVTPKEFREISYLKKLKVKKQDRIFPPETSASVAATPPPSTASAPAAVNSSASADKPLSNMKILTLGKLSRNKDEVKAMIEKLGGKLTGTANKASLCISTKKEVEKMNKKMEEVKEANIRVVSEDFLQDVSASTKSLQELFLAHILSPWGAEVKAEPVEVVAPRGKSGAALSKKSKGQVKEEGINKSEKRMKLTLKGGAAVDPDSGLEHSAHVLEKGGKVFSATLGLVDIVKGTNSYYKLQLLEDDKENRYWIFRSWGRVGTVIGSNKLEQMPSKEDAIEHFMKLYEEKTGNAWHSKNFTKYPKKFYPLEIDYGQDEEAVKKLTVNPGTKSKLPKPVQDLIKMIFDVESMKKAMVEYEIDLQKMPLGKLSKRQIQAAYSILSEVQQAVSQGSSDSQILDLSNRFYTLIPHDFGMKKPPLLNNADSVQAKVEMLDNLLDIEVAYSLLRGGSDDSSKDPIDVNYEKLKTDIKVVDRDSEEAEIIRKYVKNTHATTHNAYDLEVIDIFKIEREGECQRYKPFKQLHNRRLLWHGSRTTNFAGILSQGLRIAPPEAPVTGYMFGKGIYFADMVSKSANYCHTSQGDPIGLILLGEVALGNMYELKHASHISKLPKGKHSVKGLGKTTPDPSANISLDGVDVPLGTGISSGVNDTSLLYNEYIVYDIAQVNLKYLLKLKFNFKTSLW

| SMILES | IC50 [nM] |
| --- | --- |
| CCc1cc2ncc(CNC3CC(Nc4ccc(C(=O)NC)nc4)C3)cc2[nH]c1=O (stereo not shown) [Compound No. 29, 5-((3-(((7-ethyl-6-oxo-5,6-dihydro-1,5-naphthyridin-3-yl)methyl)amino)cyclobutyl)amino)-N-methylpicolinamide] | 100 to 3000 |
| CCc1cc2ncc(CN3CC4CN(c5ccc(C(=O)NC)nc5)CC4C3)cc2[nH]c1=O (stereo not shown) [Compound No. 7, 5-(5-((7-ethyl-6-oxo-5,6-dihydro-1,5-naphthyridin-3-yl)methyl)hexahydropyrrolo[3,4-c]pyrrol-2(1H)-yl)-N-methylpicolinamide] | 100 to 3000 |
| CCc1cc2ncc(CN3CCCN(c4ccc(C(=O)NC)nc4)CC3)cc2[nH]c1=O [Compound No. 6, 5-(4-((7-ethyl-6-oxo-5H-1,5-naphthyridin-3-yl)methyl)-1,4-diazepan-1-yl)-N-methylpyridine-2-carboxamide] | < 100 |
| CCc1cc2ncc(CN3CC4(C3)CN(c3ccc(C(=O)NC)nc3)C4)cc2[nH]c1=O [Compound No. 9, 5-(6-((7-ethyl-6-oxo-5,6-dihydro-1,5-naphthyridin-3-yl)methyl)-2,6-diazaspiro[3.3]heptan-2-yl)-N-methylpicolinamide formate] | < 100 |
